Measurements: ChEMBL document CHEMBL5291721, “A preclinical secondary pharmacology resource illuminates target-adverse drug reaction associations of marketed drugs” (Nat Commun, 2023)

Experiments:
Vasopressin V2 receptor = Vasopressin V2 receptor (Homo sapiens, UniProt P30518)
[1] = biological target: Growth hormone secretagogue receptor type 1 (Homo sapiens, UniProt Q92847)
[2] = biological target: 5-hydroxytryptamine receptor 2A (Homo sapiens, UniProt P28223); format: functional, cell-based
[3] = biological target: T1, Amine oxidase [flavin-containing] A (Homo sapiens, UniProt P21397); format: functional
T1 sequence (P21397 whole entry): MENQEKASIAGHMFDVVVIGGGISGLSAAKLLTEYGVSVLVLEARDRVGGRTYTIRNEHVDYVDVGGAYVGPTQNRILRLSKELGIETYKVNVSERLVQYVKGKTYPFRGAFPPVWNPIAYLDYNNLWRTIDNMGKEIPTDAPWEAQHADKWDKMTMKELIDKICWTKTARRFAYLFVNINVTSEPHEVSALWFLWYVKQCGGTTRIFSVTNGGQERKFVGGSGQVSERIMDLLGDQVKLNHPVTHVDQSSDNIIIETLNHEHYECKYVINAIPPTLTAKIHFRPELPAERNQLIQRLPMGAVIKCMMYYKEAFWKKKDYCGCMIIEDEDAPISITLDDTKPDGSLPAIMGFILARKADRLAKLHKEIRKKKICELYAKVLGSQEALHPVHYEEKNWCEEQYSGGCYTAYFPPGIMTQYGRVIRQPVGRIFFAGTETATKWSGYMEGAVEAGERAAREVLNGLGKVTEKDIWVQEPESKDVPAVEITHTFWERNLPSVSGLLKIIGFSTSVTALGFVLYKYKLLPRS

D(3) dopamine receptor = D(3) dopamine receptor (Homo sapiens, UniProt P35462)
Chain of D(3) dopamine receptor (P35462 whole entry): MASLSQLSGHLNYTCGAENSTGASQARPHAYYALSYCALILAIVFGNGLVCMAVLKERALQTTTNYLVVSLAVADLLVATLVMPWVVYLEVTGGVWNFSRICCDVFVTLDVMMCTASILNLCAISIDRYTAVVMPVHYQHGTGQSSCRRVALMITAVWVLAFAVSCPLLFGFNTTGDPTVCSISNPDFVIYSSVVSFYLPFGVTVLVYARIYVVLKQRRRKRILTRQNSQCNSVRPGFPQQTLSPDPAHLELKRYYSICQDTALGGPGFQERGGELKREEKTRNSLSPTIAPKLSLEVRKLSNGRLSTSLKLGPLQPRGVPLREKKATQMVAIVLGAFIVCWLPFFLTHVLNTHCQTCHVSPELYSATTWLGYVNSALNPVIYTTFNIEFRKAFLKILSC

[4] = biological target: Neuronal acetylcholine receptor subunit alpha-4 (Homo sapiens, UniProt P43681)
Chain of Neuronal acetylcholine receptor subunit alpha-4 (P43681 whole entry): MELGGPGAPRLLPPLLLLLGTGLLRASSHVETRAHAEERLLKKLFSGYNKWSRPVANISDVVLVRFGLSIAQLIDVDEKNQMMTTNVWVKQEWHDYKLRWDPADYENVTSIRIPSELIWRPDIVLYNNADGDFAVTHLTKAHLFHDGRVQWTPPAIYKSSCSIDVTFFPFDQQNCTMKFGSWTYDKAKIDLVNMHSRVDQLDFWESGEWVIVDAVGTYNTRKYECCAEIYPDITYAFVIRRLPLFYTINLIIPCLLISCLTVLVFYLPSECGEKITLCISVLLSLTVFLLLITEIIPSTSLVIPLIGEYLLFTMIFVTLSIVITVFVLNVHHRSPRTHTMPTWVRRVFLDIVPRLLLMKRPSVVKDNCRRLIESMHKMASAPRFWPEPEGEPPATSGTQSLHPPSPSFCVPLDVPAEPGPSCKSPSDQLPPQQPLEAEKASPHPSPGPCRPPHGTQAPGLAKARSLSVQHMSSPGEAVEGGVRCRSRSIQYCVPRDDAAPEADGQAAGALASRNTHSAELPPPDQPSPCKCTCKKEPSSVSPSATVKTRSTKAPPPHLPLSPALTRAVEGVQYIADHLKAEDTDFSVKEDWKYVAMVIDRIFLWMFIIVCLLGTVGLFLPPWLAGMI

[5] = biological target: T2, Prostaglandin G/H synthase 1 (Rattus norvegicus, UniProt Q63921); format: functional
T2 sequence (Q63921 whole entry): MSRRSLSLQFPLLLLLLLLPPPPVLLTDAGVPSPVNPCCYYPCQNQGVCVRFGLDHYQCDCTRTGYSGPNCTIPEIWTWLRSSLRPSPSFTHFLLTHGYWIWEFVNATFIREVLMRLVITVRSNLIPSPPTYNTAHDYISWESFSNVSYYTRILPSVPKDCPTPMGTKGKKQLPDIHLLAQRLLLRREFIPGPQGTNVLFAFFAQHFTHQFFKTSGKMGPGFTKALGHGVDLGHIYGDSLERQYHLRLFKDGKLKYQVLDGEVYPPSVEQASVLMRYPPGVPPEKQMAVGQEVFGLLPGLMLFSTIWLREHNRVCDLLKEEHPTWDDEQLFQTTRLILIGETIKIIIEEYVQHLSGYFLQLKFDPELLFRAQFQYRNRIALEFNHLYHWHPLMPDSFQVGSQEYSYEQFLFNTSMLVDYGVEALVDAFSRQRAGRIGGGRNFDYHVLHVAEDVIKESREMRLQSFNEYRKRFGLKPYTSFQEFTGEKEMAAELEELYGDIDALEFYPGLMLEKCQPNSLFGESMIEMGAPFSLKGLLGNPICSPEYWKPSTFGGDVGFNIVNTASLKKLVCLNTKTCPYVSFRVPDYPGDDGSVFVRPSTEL

[6] = biological target: cGMP-inhibited 3',5'-cyclic phosphodiesterase 3A (Homo sapiens, UniProt Q14432); format: functional
Chain of cGMP-inhibited 3',5'-cyclic phosphodiesterase 3A (Q14432 whole entry): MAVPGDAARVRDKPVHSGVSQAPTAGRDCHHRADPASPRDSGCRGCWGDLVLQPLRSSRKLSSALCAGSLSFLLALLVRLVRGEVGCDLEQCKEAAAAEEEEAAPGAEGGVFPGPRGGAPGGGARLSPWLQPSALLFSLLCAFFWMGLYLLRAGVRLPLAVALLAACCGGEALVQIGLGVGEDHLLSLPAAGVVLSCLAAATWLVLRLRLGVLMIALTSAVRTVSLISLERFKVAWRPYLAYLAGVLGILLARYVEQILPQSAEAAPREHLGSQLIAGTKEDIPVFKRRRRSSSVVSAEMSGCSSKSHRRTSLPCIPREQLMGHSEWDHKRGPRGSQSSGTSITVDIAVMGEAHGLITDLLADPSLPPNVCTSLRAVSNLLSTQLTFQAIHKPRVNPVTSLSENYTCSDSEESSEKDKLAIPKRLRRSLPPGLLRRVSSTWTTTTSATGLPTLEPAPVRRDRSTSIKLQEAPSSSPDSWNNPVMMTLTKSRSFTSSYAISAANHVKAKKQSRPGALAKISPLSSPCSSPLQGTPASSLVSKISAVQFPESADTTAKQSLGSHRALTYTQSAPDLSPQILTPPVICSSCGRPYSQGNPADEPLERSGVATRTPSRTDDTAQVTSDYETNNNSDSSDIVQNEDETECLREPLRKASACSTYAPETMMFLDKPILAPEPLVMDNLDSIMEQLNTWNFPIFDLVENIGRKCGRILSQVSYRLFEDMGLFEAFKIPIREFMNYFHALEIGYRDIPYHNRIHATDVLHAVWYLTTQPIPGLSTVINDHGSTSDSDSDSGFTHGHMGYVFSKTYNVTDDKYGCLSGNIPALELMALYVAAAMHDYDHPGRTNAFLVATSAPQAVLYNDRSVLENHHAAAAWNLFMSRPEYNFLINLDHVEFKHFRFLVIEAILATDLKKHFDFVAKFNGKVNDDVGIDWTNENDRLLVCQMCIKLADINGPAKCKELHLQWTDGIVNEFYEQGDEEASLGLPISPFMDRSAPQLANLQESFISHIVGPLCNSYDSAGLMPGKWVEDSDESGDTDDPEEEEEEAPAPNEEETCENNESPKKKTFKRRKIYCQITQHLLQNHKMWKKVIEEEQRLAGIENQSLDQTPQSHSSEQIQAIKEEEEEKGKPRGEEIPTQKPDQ

[7] = biological target: T3, Neuropeptide Y receptor type 1 (Homo sapiens, UniProt P25929)
T3 sequence (P25929 whole entry): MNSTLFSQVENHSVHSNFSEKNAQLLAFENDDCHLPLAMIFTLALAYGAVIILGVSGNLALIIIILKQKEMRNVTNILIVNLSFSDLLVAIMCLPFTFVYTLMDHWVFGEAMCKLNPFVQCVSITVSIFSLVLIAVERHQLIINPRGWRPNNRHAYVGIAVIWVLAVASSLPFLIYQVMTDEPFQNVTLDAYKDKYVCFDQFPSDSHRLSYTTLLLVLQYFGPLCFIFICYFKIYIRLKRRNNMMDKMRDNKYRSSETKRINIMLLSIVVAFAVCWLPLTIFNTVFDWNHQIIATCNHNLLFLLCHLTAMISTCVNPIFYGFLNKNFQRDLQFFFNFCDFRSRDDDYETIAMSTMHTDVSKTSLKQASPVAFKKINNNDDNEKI

[8] = biological target: T4, Equilibrative nucleoside transporter 1 (Homo sapiens, UniProt Q99808)
T4 sequence (Q99808 whole entry): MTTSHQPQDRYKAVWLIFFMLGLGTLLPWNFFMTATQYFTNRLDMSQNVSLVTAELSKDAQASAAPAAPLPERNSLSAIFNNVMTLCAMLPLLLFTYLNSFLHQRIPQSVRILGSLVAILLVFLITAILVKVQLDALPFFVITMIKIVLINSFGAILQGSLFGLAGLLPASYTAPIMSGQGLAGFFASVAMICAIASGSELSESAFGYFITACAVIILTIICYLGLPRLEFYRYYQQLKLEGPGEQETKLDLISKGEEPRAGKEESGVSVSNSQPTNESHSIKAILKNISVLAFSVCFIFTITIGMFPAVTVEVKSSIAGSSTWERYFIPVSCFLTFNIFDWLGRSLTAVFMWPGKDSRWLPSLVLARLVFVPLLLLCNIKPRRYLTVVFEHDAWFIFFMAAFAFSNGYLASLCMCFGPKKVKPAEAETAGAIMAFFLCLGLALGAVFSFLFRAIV

Adenosine receptor A2a = Adenosine receptor A2a (Homo sapiens, UniProt P29274)
Chain of Adenosine receptor A2a (P29274 whole entry): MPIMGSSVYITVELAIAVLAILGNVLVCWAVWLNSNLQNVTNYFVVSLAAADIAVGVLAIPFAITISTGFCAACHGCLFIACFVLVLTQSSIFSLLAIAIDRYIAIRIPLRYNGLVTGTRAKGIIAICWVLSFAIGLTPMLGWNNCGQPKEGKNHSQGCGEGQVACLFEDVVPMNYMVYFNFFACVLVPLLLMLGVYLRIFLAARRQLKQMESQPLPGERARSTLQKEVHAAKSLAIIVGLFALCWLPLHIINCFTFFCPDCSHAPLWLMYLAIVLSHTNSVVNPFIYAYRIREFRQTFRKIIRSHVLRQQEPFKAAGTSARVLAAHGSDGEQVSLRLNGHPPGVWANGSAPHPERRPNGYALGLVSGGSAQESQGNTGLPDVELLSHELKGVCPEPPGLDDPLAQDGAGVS
Also: assay procedure not described here.

Chain of Growth hormone secretagogue receptor type 1 (Q92847 whole entry): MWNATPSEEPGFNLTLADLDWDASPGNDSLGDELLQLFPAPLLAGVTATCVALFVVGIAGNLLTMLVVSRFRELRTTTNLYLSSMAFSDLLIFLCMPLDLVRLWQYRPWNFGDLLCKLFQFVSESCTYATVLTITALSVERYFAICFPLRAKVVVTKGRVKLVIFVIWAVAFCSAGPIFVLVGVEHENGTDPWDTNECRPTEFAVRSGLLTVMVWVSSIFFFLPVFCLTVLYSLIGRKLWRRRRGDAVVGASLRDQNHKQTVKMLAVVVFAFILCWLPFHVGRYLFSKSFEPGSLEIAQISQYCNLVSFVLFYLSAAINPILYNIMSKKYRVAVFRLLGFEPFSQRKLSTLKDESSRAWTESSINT
Chain of Vasopressin V2 receptor (P30518 whole entry): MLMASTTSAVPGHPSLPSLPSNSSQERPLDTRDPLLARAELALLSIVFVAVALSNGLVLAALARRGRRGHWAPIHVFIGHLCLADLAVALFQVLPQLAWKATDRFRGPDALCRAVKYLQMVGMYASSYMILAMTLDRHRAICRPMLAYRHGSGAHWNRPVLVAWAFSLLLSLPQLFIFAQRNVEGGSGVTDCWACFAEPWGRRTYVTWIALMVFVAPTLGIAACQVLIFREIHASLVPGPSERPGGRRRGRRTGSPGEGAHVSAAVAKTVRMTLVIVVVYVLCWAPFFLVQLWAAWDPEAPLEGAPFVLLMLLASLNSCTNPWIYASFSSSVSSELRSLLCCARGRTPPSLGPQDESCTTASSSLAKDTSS
Chain of 5-hydroxytryptamine receptor 2A (P28223 whole entry): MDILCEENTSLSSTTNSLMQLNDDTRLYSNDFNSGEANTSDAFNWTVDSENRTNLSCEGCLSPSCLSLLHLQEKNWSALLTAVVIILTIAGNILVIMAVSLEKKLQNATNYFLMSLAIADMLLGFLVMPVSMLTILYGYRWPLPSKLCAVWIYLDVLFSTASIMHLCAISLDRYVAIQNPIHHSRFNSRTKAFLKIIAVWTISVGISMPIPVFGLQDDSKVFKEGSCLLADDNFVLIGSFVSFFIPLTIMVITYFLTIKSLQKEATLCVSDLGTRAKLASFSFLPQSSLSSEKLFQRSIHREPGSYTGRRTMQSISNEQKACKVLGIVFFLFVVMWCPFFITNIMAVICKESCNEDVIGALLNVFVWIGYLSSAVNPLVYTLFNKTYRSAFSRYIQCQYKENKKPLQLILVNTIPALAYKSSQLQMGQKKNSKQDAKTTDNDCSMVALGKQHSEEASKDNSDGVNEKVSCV

| Structure (SMILES) | AC50 (Vasopressin V2 receptor) [µM] | AC50 [1] [µM] | AC50 [2] [µM] | AC50 [3] [µM] | AC50 (D(3) dopamine receptor) [µM] | AC50 [4] [µM] | AC50 [5] [µM] | AC50 [6] [µM] | AC50 [7] [µM] | AC50 [8] [µM] | AC50 (Adenosine receptor A2a) [µM] |
| --- | --- | --- | --- | --- | --- | --- | --- | --- | --- | --- | --- |
| CC(C)[N+](C)(CCC(C(N)=O)(c1ccccc1)c1ccccc1)C(C)C [ISOPROPAMIDE] | > 10 | > 10 | > 10 | > 10 | > 30 | > 10 | > 10 | > 30 | > 10 | > 10 | > 10 |
| COC(=O)C1=C(C)NC(C)=C(C(=O)OC(C)C)C1c1cccc2nonc12 (stereo not drawn) [ISRADIPINE] | > 30 | > 30 | > 10 | > 30 | > 30 | > 30 | > 30 | 23 | > 30 | > 30 | > 30 |
| COc1ccc(C(=O)NCc2ccc(OCCN(C)C)cc2)cc1OC [ITOPRIDE] | > 30 | > 30 | > 30 | > 30 | 20 | > 30 | > 10 | > 30 | > 30 | > 30 | > 30 |
| CN1CC[C@]23CCCC[C@H]2[C@H]1Cc1ccc(O)cc13 [LEVORPHANOL] | > 10 | > 10 | > 10 | > 30 | > 30 | > 10 | > 10 | > 30 | > 10 | > 30 | > 10 |
| CC/C=C\C/C=C\C/C=C\CCCCCCCC(=O)O [LINOLENIC ACID] | > 30 | > 30 | > 30 | > 30 | > 30 | > 30 | 6.3 | > 30 | > 30 | > 30 | > 30 |
| C#C[C@]1(O)CC[C@H]2[C@@H]3CCC4=CCCC[C@@H]4[C@H]3CC[C@@]21C [LYNESTRENOL] | > 30 | > 30 | > 30 | 0.3 | > 30 | > 30 | > 30 | > 30 | > 30 | > 30 | > 30 |
| CC1=CC(=O)c2ccccc2C1=O [MENADIONE] | > 10 | > 10 | > 10 | 17 | > 30 | > 10 | > 10 | > 30 | > 10 | > 10 | > 30 |
| C[C@H]1C[C@@H]2[C@H]([C@@H](O)C[C@@]3(C)[C@H]2CC[C@]3(O)C(=O)COC(=O)CCC(=O)O)[C@@]2(C)C=CC(=O)C=C12 [METHYLPREDNISOLONE HEMISUCCINATE] | > 30 | > 30 | > 30 | > 30 | > 30 | > 30 | > 30 | > 30 | > 30 | > 30 | > 30 |
| Cc1cc(-c2ccccc2)nnc1NCCN1CCOCC1 [MINAPRINE] | > 30 | > 30 | > 30 | > 10 | > 10 | > 10 | > 30 | > 30 | > 30 | > 30 | > 30 |
| CCCCC(C)(O)C/C=C/[C@H]1[C@H](O)CC(=O)[C@@H]1CCCCCCC(=O)OC (stereo partly drawn) [MISOPROSTOL] | > 30 | > 30 | > 30 | > 30 | > 30 | > 30 | > 30 | > 30 | > 30 | > 30 | > 30 |
| O=C(OCCN1CCOCC1)c1cccnc1Nc1cccc(C(F)(F)F)c1 [MORNIFLUMATE] | > 30 | > 30 | 2.9 | > 30 | > 30 | > 30 | > 30 | > 30 | > 30 | > 30 | > 30 |
| CCCCCCC(C)(C)c1cc(O)c2c(c1)OC(C)(C)C1CCC(=O)CC21 (stereo not drawn) [NABILONE] | > 30 | > 30 | > 30 | > 30 | > 30 | > 30 | > 30 | > 30 | > 30 | > 30 | > 30 |
| CCCCCCCCOc1ccccc1C(=O)Nc1ccc(C(=O)OCC[N+](C)(CC)CC)cc1 [OTILONIUM BROMIDE] | 9.9 | 7.6 | 3.9 | > 30 | 2 | > 30 | 14 | 20 | 10 | 17 | 5.3 |
| CN1CCCN=C1COC(=O)C(O)(c1ccccc1)C1CCCCC1 (stereo not drawn) [OXYPHENCYCLIMINE] | > 10 | > 10 | > 10 | > 10 | > 30 | > 10 | > 10 | > 30 | > 10 | 27.5 | > 10 |
| CN1CCC2=C(C1)C(c1ccccc1)c1ccccc12 (stereo not drawn) [PHENINDAMINE] | > 10 | > 10 | > 10 | > 10 | > 30 | > 10 | 0.771 | > 30 | > 10 | > 30 | > 10 |
| CN1C(=O)CC(c2ccccc2)C1=O (stereo not drawn) [PHENSUXIMIDE] | > 10 | > 10 | > 10 | > 10 | > 30 | > 10 | > 10 | > 30 | > 10 | > 10 | > 10 |
| O=C(O)CCCc1ccccc1 [PHENYLBUTANOIC ACID] | > 30 | > 10 | > 30 | > 30 | > 30 | > 10 | > 30 | > 30 | > 10 | > 30 | > 10 |
| CC(Cc1ccccc1)NCCC(c1ccccc1)c1ccccc1 (stereo not drawn) [PRENYLAMINE] | > 30 | 3 | > 30 | > 10 | 2.4 | > 10 | > 30 | > 30 | > 30 | > 30 | > 30 |
